This assay concerns the target T1, Human MGAT-2 (Homo sapiens, UniProt Q3SYC2).
T1 construct: made in house; host or cells: Sf9 cells (membrane preparation)
The assay is described as follows: MGAT LCMS Assay. The assay is classed as biochemical. Conditions: human MGAT2 membranes expressed in Sf9 cells; 100 μM 2-oleoylglycerol, 15 μM oleoyl-coenzyme A; read-out: h-MGAT LCMS IC50. Summed up:
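Robotic enzyme reaction shaken 10 min, quenched with ice-cold methanol containing 1 μg/mL 1,2-distearoyl-rac-glycerol internal standard. Diolein product measured by LC/MS (C8 column, 65° C, APCI(+) triple quad). IC50 derived from diolein/internal standard peak area ratio.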
T1 sequence (Q3SYC2 whole entry): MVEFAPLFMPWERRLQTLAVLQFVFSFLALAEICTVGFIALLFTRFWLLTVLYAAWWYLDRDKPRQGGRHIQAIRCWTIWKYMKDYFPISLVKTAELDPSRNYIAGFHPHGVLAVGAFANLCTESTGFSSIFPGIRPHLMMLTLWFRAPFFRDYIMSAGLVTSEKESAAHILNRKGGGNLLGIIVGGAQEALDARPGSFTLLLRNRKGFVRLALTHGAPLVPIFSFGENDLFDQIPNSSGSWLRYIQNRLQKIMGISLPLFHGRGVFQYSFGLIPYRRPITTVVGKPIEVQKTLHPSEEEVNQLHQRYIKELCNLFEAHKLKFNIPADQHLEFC
With `CCc1ccc(-c2cc(-c3ccc(OCCCC(F)(F)F)cc3Cl)[nH]c(=O)c2-c2nnn[nH]2)s1` [Example 139, 6-(2-Chloro-4-(4,4,4-trifluorobutoxy)phenyl)-4-(5-ethylthiophen-2-yl)-3-(1H-tetrazol-5-yl)pyridin-2(1H)-one], the IC50 is 4 nM. Turning to `CCc1ccc(-c2cc(-c3ccc(OCCCCCC(F)(F)F)cc3)[nH]c(=O)c2C(=O)NS(C)(=O)=O)s1` [Example 101, 4-(5-Ethylthiophen-2-yl)-N-(methylsulfonyl)-2-oxo-6-(4-((6,6,6-trifluorohexyl)oxy)phenyl)-1,2-dihydropyridine-3-carboxamide], the IC50 was determined as 7 nM. On to `CCc1ccc(-c2cc(-c3ccc(OCCCC(F)(F)F)cc3)[nH]c(=O)c2C(=O)NS(C)(=O)=O)s1` [Example 21, 4-(5-Ethylthiophen-2-yl)-N-(methylsulfonyl)-2-oxo-6-(4-(4,4,4-trifluorobutoxy)phenyl)-1,2-dihydropyridine-3-carboxamide], for which the half-inhibitory concentration (IC50) came out at 21 nM. Take `Cc1ccc(-c2cc(-c3ccc(OCCCC(F)(F)F)cc3)[nH]c(=O)c2-n2nn[nH]c2=O)cc1` [Example 153, 3-(5-Oxo-4,5-dihydro-1H-tetrazol-1-yl)-4-(p-tolyl)-6-(4-(4,4,4-trifluorobutoxy)phenyl)pyridin-2(1H)-one]: the IC50 came out at 49 nM.

For the compound `O=C(Nc1ccc(OC(F)(F)F)cc1)c1c(-c2ccc(Cl)s2)cc(C2CCCCC2)[nH]c1=O` [Example 85, 4-(5-Chlorothiophen-2-yl)-6-cyclohexyl-2-oxo-N-(4-(trifluoromethoxy)phenyl)-1,2-dihydropyridine-3-carboxamide], the half-maximal inhibitory concentration (IC50) worked out at 7 nM. For `CCOc1ccc(NC(=O)c2c(-c3ccc(C)cc3)c(C)c(C3CCCCC3)[nH]c2=O)cc1` [Example 25, 6-Cyclohexyl-N-(4-ethoxyphenyl)-5-methyl-2-oxo-4-(p-tolyl)-1,2-dihydropyridine-3-carboxamide], the concentration for half-maximal inhibition (IC50) stood at 72 nM. Consider `CC(C)(C)c1ccc(-c2cc(-c3ccc(OCCCC(F)(F)F)cc3)[nH]c(=O)c2C(=O)NS(=O)(=O)C2CC2)cc1` [Example 12, 4-(4-(tert-Butyl)phenyl)-N-(cyclopropylsulfonyl)-2-oxo-6-(4-(4,4,4-trifluorobutoxy)phenyl)-1,2-dihydropyridine-3-carboxamide], for which the IC50 was determined as 56 nM. For the compound `Cc1ccc(-c2cc(-c3ncc(CCCCCCC(F)(F)F)s3)[nH]c(=O)c2-c2nnn[nH]2)cc1` [Example 62, 3-(1H-Tetrazol-5-yl)-4-(p-tolyl)-6-(5-(7,7,7-trifluoroheptyl)thiazol-2-yl)pyridin-2(1H)-one], the IC50 came to 188 nM.

On to `CCc1ccc(-c2cc(-c3ccc(OCCCC(F)(F)F)cc3F)[nH]c(=O)c2-c2nn[nH]n2)s1` [Example 20, 4-(5-Ethylthiophen-2-yl)-6-(2-fluoro-4-(4,4,4-trifluorobutoxy)phenyl)-3-(2H-tetrazol-5-yl)pyridin-2(1H)-one], for which the 50% inhibitory concentration (IC50) was determined as 5 nM. To `CCOc1cc(OCCCC(F)(F)F)ccc1-c1cc(-c2ncc(C3CC3)s2)c(-c2nnn[nH]2)c(=O)[nH]1` [Example 137, 4-(5-Cyclopropylthiazol-2-yl)-6-(2-ethoxy-4-(4,4,4-trifluorobutoxy)phenyl)-3-(1H-tetrazol-5-yl)pyridin-2(1H)-one] belongs 5 nM; to `CCCCCc1ccc(-c2cc(-c3ccc(C)cc3)c(C(=O)Nc3ccc(OCC)cc3)c(=O)[nH]2)cc1` [Example 27, N-(4-Ethoxyphenyl)-2-oxo-6-(4-pentylphenyl)-4-(p-tolyl)-1,2-dihydropyridine-3-carboxamide], 86 nM; to `CCc1ccc(-c2cc(-c3ccc(OCCCC(F)(F)F)cc3Cl)[nH]c(=O)c2C(=O)NS(C)(=O)=O)s1` [Example 140, 6-(2-Chloro-4-(4,4,4-trifluorobutoxy)phenyl)-4-(5-ethylthiophen-2-yl)-N-(methylsulfonyl)-2-oxo-1,2-dihydropyridine-3-carboxamide], 30 nM.

The values above are taken from US9974778B2, “Substituted pyridinones as MGAT2 inhibitors” (BRISTOL-MYERS SQUIBB COMPANY, priority 2014, dated 2018).
